The values below come from ChEMBL document CHEMBL1159216, “Imperanene, a novel phenolic compound with platelet aggregation inhibitory activity from Imperata cylindrica” (J Nat Prod, 1995).

Activity calls are given as the source filed them. The rule behind the calls is not given here.

The test system of the assay is Platelet. In words: Antiplatelet activity in Japanese white rabbit platelet assessed as inhibition of thrombin-induced platelet aggregation at 600 uM preincubated 5 mins before thrombin challenge. Type of assay: functional, cell-based. As to conditions: Oryctolagus cuniculus.

As to `COc1cc(/C=C/[C@@H](CO)Cc2ccc(O)c(OC)c2)ccc1O`, the outcome was Active.
